How the values were obtained:
[1] = in vivo; cited from earlier work
[2] = Additional benefits observed in people taking betaine; format: in vivo, human
Text: Betaine is known to improve cardiovascular health, and can benefit people with fatty deposits in the liver. […] After only a few weeks of taking the betaine, cholesterol levels are reduced and the ability to lose weight is improved.

[3] = after only a few weeks of taking the betaine

## C[N+](C)(C)CC(=O)[O-] [betaine, trimethylglycine]
[1]
  serious side effects: no known serious side effects
[2]; a few doses of betaine at about one and a half to about three grams per day, especially older people
  tendency to be light headed on getting up after prolonged squatting or kneeling: considerably lessened
[2]; [3]
  ability to lose weight: improved
  cholesterol levels: reduced
